One compound from PubChem BioAssay (NCI) can be followed below.

Some test systems named below: XF 498 CNS; MDA-N; KM20L2 colon; HOP-18 NSCLC; DMS 273 small cell lung; RXF-631 renal; DLD-1 colon; SNB-78 CNS; DMS 114 small cell lung.
Holding throughout (assay): NCI tumour cell line growth inhibition, 48 h

Structures are written as SMILES.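 Grown in 96-well plates, cells were treated for 48 hours with each compound at five concentrations. Insufficient inhibition: endpoint recorded as highest concentration tested. TGI denotes the concentration required for complete inhibition of growth.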

As for `CC(=O)c1cccc(NC(=O)C(=O)NNc2n[nH]c(=S)n2N)c1`, the TGI worked out at 25.7 µM with XF 498 CNS; 3.8 µM in the assay with MDA-N; 46.1 µM in the assay with KM20L2 colon; 24.2 µM in the assay with HOP-18 NSCLC; 18.7 µM in the assay on DMS 273 small cell lung; 10.9 µM with RXF-631 renal. The TGI in the assay on DLD-1 colon stood at 31.6 µM; in the assay on SNB-78 CNS, 35 µM; in the assay with DMS 114 small cell lung it was 3.93 µM.
